This note sets out measurements from article PMC8962522, “Direct interaction of TrkA/CD44v3 is essential for NGF-promoted aggressiveness of breast cancer cells” (Journal of Experimental & Clinical Cancer Research : CR, 2022).

Assay [1] has as its system TrkA/CD44v3 complex in HCC-1954 cells. Nature of the assay: PLA TrkA/CD44v3 complex formation in HCC-1954 cells. It is filed as cell-based. Particulars: Her2-like; NGF 100 ng/ml. The method, then:
Cells (10,000 cells per well) were grown on acid-washed eight-well glass slides (Thermo Scientific) in the appropriate medium supplemented with 10% FBS for 24 h. After NGF treatment, paraformaldehyde (PAF)-fixed cells were incubated with 4% bovine serum albumin (BSA) or 5% FBS (for 1 h at 20 °C), followed by overnight incubation with primary antibodies (rabbit anti-TrkA or rabbit anti-IgG + mouse anti-pan-CD44; mouse anti-CD44v3; mouse anti-CD44v6; mouse anti-IgG2a; mouse anti-IgG2b; or mouse anti-IgG1). PLA was performed following the manufacturer’s instructions in the assay kit (Duolink PLA; Sigma–Aldrich). To obtain the correct representation of the PLA signal for each condition, 30 fields per condition were observed using a fluorescence microscope (Eclipse TiU; Nikon, Japan). The PLA signals (red dots) were automatically quantified using ImageJ software (with an in-house-developed plug-in). […]
Fig. 7 The TrkA/CD44v3 complex is formed in PR-negative breast cancer cells and tumors. TrkA/CD44v3 complex formation was measured in SUM159-PT (triple negative—i.e., ERα-, PR-, and Her2-) cells (A), T47-D (luminal A—i.e., ERα+, PR+, and Her2-) cells (B), BT-474 (luminal B—ERα+, PR+, and Her2+) cells (C), HCC-1954 (Her2-like—ERα-, PR-, and Her2+) cells (D), and 150 tumor patient samples obtained from US BioMax (HBre-Duc150Sur01) (E, F) using the proximity ligation assay (PLA). […]

Assay [2] relates to TrkA in MDA-MB-231 cells. Nature of the assay: Immunofluorescence, membrane TrkA. It is filed as cell-based. Particulars: MDA-MB-231, immunofluorescence/confocal, NGF; "same trend" = as CD44v3: increased until 15 min and then decreased. The text has this:
The CD44v3- and CD44v6-containing isoforms expressing respectively exon 8 and 11(Fig. 1A) can interact with growth factor receptors. Using COS-7 cells with low CD44 and TrkA expression (Supplementary Fig. 1A-D), we differentially expressed TrkA and CD44s or a CD44 variant, either CD44v3 or CD44v6 (Fig. 1B, supplementary Fig. 2). […] Additionally, we evaluated the expression of TrkA and CD44v3 at the membrane level or in cells by immunofluorescence in MDA-MB-231 cells.
Supplementary file 13046_2022_2314_MOESM3_ESM.pdf: Additional file 3: Supplementary Figure 1. Validation of the ectopic expression of CD44 and/or TrkA in COS-7 cells. The expression of all CD44 isoforms (A), CD44 variant 3 (B), CD44 variant 6 (C) and TrkA ([…]; D) was evaluated by RT–qPCR (normalized using PUM-1). No expression of CD44, CD44 variants [3 or 6] or TrkA was detected in COS-7 cells (A-D) compared with that in cells transfected with the expression plasmid carrying each protein. […] Quantification of the PLA results was performed using ImageJ software (30 randomly chosen fields per condition of three different experiments). […] CD44v3 and CD44v6 levels at the plasma membrane were assessed by flow cytometry (A-D). The plasma membrane and total TrkA and CD44v3 levels were also quantified by confocal microscopy (E-H). […] The CD44v3/NGF interaction was evaluated using microscale thermophoresis (MST). […]

For the substance “NGF: recombinant human β-NGF (Alomone Labs, Israel)”, the “effect on TrkA/CD44v3 complex formation (PLA) in HCC-1954 cells” value in assay [1] is “NGF induction of CD44v3/TrkA complex formation was observed in SUM-159PT (TN) and HCC-1954 (Her2) cells”. Further, the “level of TrkA at the membrane (in words)” value in assay [2] was “the membrane level of TrkA followed the same trend”.
